Test results taken from article PMC6969517 (Proceedings of the National Academy of Sciences of the …, 2019).

Target: T1, ShkA (Caulobacter vibrioides, UniProt Q9ABT2)
T1 sequence (Q9ABT2 1-514): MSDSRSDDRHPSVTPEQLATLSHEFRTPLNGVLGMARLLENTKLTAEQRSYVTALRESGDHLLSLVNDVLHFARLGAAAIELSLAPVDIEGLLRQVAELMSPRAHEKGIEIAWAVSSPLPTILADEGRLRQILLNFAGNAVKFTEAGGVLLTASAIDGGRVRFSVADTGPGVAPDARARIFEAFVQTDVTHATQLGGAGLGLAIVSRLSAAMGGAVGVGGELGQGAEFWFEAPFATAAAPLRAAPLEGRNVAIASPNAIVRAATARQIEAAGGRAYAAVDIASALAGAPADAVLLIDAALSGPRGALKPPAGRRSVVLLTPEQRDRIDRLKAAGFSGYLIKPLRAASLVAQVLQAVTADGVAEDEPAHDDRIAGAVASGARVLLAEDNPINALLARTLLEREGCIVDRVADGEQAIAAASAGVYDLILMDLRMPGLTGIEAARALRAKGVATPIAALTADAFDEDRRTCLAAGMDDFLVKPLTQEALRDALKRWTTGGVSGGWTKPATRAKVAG
Test: FCA and ITC
Format: biochemical

Nc1ncnc2c1ncn2[C@@H]1O[C@H](COP(=O)(O)OP(=O)(O)O)[C@@H](O)[C@H]1O [ADP] showed a Ki of ~60 µM.
